According to US20210380548A1, “Fused [1,2,4]Thiadiazine Derivatives Which Act as KAT Inhibitors of the MYST Family” (CTxT Pty Limited, priority 2017, published 2021):

Key:
TIP60-KAT5 [1] = biological target: T1, TIP60-KAT5 (Homo sapiens, UniProt Q92993); test: Revised Acetyltransferase Biochemical Assay, KAT5; conditions: 10 nM KAT5, 1 μM AcCoA, 100 nM histone H4, 90 min
T1 construct: encoding amino acid residues 2 to 461 (Uniprot Q92993-2) of human KAT5 isoform; made in house; host or cells: E. coli BL21 DE3
T1 sequence (Q92993 2-461 isoform Q92993-2): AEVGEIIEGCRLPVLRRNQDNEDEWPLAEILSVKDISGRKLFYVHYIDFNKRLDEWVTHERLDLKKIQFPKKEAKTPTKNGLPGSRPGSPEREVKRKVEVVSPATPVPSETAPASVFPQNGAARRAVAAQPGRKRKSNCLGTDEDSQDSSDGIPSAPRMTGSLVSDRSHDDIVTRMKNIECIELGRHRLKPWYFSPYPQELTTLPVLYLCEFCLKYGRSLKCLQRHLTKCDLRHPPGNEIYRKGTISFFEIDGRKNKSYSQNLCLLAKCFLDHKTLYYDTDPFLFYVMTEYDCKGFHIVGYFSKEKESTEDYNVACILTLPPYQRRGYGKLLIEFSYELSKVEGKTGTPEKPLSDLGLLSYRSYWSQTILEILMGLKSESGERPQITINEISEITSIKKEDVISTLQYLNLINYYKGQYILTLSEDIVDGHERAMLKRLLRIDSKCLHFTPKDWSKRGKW

MOZ-KAT6A [2] = biological target: T2, MOZ-KAT6A (Homo sapiens, UniProt Q92794, A567V); test: Acetyltransferase biochemical assay (AlphaScreen), KAT6A; conditions: Table 2 (MOZ-KAT6A); 10 μM Acetyl coenzyme A, histone H3.1, 5 nM enzyme
T2 construct: encoding amino acid residues 507 to 778 (Uniprot Q92794-1) of human KAT6A; made in house; host or cells: E. coli BL21 DE3
T2 sequence (Q92794 507-778 A567V limits assumed): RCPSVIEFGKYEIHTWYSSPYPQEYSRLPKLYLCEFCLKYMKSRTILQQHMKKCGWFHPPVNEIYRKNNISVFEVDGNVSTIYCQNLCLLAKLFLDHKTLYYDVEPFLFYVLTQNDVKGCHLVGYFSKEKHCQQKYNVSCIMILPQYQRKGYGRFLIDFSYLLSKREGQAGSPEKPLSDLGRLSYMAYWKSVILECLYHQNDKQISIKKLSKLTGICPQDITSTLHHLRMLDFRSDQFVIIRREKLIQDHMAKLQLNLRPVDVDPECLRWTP

TIP60-KAT5 [3] = biological target: T1, TIP60-KAT5; test: Acetyltransferase biochemical assay (AlphaScreen), KAT5; conditions: Table 1 (TIP60-KAT5); 0.4 μM Acetyl coenzyme A, histone H4, 10 nM enzyme
MOF-KAT8 [4] = biological target: T3, MOF-KAT8 (Homo sapiens, UniProt Q9H7Z6); test: Acetyltransferase biochemical assay (AlphaScreen), KAT8; conditions: Table 4 (MOF-KAT8); 0.4 μM Acetyl coenzyme A, histone H4, 20 nM enzyme
T3 sequence (Q9H7Z6 177-447): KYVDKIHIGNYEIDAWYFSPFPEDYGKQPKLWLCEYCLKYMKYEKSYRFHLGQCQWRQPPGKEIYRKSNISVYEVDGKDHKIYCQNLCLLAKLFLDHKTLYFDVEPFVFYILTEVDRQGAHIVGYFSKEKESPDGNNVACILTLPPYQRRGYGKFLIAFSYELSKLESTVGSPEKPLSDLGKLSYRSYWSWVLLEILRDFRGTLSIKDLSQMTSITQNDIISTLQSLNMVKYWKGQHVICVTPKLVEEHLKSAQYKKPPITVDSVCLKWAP

HBO-KAT7 [5] = biological target: T4, HBO-KAT7 (Homo sapiens, UniProt O95251); test: Revised Acetyltransferase Biochemical Assay, KAT7; conditions: Table 9 (HBO-KAT7), 1 μM Acetyl coenzyme A
T4 construct: encoding amino acid residues 325 to 611 (Uniprot 095251-1) of human KAT7; made in house; host or cells: E. coli BL21 DE3 RIL
T4 sequence (O95251 with tags, fused parts or gaps): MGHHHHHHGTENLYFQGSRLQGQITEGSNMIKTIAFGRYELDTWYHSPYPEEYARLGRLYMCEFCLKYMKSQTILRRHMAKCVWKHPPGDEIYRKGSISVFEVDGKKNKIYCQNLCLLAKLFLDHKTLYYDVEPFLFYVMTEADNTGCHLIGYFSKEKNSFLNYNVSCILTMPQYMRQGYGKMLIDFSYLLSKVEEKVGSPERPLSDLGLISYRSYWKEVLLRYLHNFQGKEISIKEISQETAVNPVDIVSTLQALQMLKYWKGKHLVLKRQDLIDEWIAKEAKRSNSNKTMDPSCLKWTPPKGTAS

HBO-KAT7 [6] = biological target: T4, HBO-KAT7; test: Acetyltransferase biochemical assay (AlphaScreen), KAT7; conditions: Table 3 (HBO-KAT7); 0.4 μM Acetyl coenzyme A, histone H3.1, 40 nM enzyme
MOZ-KAT6A [7] = biological target: T2, MOZ-KAT6A; test: Revised Acetyltransferase Biochemical Assay, KAT6A; conditions: Table 8 (MOZ-KAT6A), 1 μM Acetyl coenzyme A
MOF-KAT8 [8] = biological target: T3, MOF-KAT8; test: Revised Acetyltransferase Biochemical Assay, KAT8
[9] = tested on: histone H3K23 acetylation (KATE mediated) in U2OS cells; test: Histone H3 Lysine 23 Acetylation Biomarker Assay (U2OS); type: cell-based; conditions: Homo sapiens, 96 well, 24 hours incubation
Experimental: Compounds may be tested for their ability to inhibit acetylation of the histone H3K23 marker, which is KATE mediated, in the following assay:
The cell line U2OS was seeded at a density of 9,000 cells per well in 96 well optical quality tissue culture plates in RPMI medium and 10% foetal bovine serum, and allowed to adhere for 24 hours under standard culture conditions (37 degree Celsius, 5% CO2). At the end of this period the medium was aspirated. Compound dilutions prepared in DMSO were added to medium, with negative control wells reserved for treatment with DMSO only and 100% inhibition positive controls receiving a potent inhibitor compound (e.g. cas 2055397-28-7, benzoic acid, 3-fluoro-5-(2-pyridinyl)-, 2-[(2-fluorophenyl)sulfonyl]hydrazide) (Baell, J., Nguyen, H. N., Leaver, D. J., Cleary, B. L., Lagiakos, H. R., Sheikh, B. N., Thomas. T. J., Aryl sulfonohydrazides, WO2016198507A1, 2016) at 10 μM concentration and 200 μL transferred to the cells. After incubation for 24 hours, the cells were fixed with 3.7% formaldehyde in PBS for 20 minutes at room temperature, washed (5×5 minutes) with phosphate buffer saline containing 0.1% Tween 20 and blocked with Odyssey blocking buffer (LI-COR, Lincoln, Nebr.) containing 0.1% TritonX100. Anti-H3K23ac specific antibody (Abcam ab177275) in Odyssey blocking buffer containing 0.1% Tween 20 was added and incubated for 16 hours at 4 degree Celsius. After washing (as above), a secondary antibody labelled with Alexa647 dye (LifeTechnologies) and Hoechst 33342 (1 μg/mL, SigmaAldrich) were added for 1 hour incubation. Plates were washed as previously and read on a PerkinElmer Phenix high content imaging platform. Using a Columbus image analysis pipeline, individual nuclei were located by Hoechst 33342 stain and the acetylation level was calculated from the Alexa647-related intensity in the same area. The resulting mean intensity per cell was directly converted to percent inhibition relative to controls on the same plate and the data fitted against a four-parameter logistic model to determine the 50% inhibitory concentration (IC50).

[10] = tested on: histone H2A.Z Lysine 7 acetylation (TIP60 mediated) in U2OS cells; test: H2A.Z Lysine 7 Acetylation Biomarker Assay (384-well, U2OS); type: cell-based; conditions: Homo sapiens, serum free medium, 24 hours incubation
Experimental: Compounds may be tested for their ability to inhibit the histone H2A.Z Lysine 7 acetylation marker (which is TIP60 mediated) in the following assay:
The cell line U2OS was seeded at a density of 3,000 cells per well in 384-well optical quality tissue culture plates in RPMI medium supplemented with 10% foetal bovine serum and 10 mM Hepes. The cells were allowed to adhere for 24 hours under standard culture conditions (37 degree Celsius, 5% CO2). At the end of this period the cells were washed with serum free medium. […] After incubation for 24 hours, the cells were fixed with 4% formaldehyde in PBS for 15 minutes at room temperature, washed with phosphate buffer saline and blocked with blocking buffer containing 0.2% TritonX100 and 2% BSA. Anti-H2A.ZK7ac specific antibody (Abcam) in blocking buffer was added and incubated overnight at 4 degree Celsius. After washing, a secondary antibody labelled with AlexaFluor 488 dye (ThermoFisher) and Hoechst 33342 (1 μg/mL, Life Technologies) were added for 2 hours incubation at room temperature. Plates were washed and read on a PerkinElmer Opera HCS high content imaging platform. Using a Columbus image analysis pipeline, individual nuclei were located by Hoechst 33342 stain and the acetylation level was calculated from the AlexaFluor 488-related intensity in the same area. The resulting mean intensity per cell was converted to percent inhibition relative to controls on the same plate and the data fitted against a four-parameter logistic model to determine the 50% inhibitory concentration (IC50).

IC50 (TIP60-KAT5 [1])	IC50 (MOZ-KAT6A [2])	IC50 (TIP60-KAT5 [3])	IC50 (MOF-KAT8 [4])	IC50 (HBO-KAT7 [5])	IC50 (HBO-KAT7 [6])	IC50 (MOZ-KAT6A [7])	IC50 (MOF-KAT8 [8])	IC50 [9]	IC50 [10]	Structure (SMILES)
3780 nM	126 nM	6950 nM	89600 nM	551 nM	6780 nM	47 nM	> 125000 nM			CN(C)C(=O)c1ccc2c(c1)S(=O)(=O)NC(C(=O)NCC(c1ccccc1)c1ncco1)=N2 (stereo not shown) [Example 33, N^7,N^7-Dimethyl-N^3-(2-(oxazol-2-yl)-2-phenylethyl)-2H-benzo[e][1,2,4]thiadiazine-3,7-dicarboxamide 1,1-dioxide]
725 nM		2800 nM		840 nM	2530 nM	403 nM	11300 nM	> 10000 nM		O=C(NCC(O)c1ccccc1OC(F)F)C1=Nc2ccc(I)cc2S(=O)(=O)N1 (stereo not shown) [Example 57, N-(2-(2-(difluoromethoxy)phenyl)-2-hydroxyethyl)-7-iodo-2H-benzo[e][1,2,4]thiadiazine-3-carboxamide 1,1-dioxide]
521 nM	2700 nM	1170 nM	39400 nM	787 nM	1330 nM	96 nM	42400 nM			COc1ccccc1CCNC(=O)C1=Nc2ccc(I)cc2S(=O)(=O)N1 [Example 86]
26100 nM	4000 nM	> 125000 nM			49400 nM	417 nM		> 10000 nM		O=C(NCC(c1ccccc1)c1ncco1)C1=Nc2ccncc2S(=O)(=O)N1 (stereo not shown) [Example 97]
852 nM			106000 nM	112 nM	571 nM	21 nM	61000 nM		20500 nM	COc1ccccc1C(CNC(=O)C1=Nc2ccc(Cl)cc2S(=O)(=O)N1)c1ncco1 (stereo not shown) [Example 178]
249 nM			77000 nM	557 nM		229 nM			37500 nM	CNC(=O)CCCOC(=O)C(CNC(=O)C1=Nc2ccc(I)cc2S(=O)(=O)N1)c1ccccc1 (stereo not shown) [Example 180]
68 nM			36300 nM	718 nM		44 nM	30500 nM		33200 nM	CNC(=O)CCOC(=O)C(CNC(=O)C1=Nc2ccc(I)cc2S(=O)(=O)N1)c1ccccc1 (stereo not shown) [Example 183]
99 nM			9220 nM	114 nM		8 nM	10200 nM		8280 nM	COc1ccccc1C(CNC(=O)C1=Nc2ccc(I)cc2S(=O)(=O)N1)c1ncco1 (stereo not shown) [Example 184, 7-iodo-N-(2-(2-methoxyphenyl)-2-(oxazol-2-yl)ethyl)-2H-benzo[e][1,2,4]thiadiazine-3-carboxamide 1,1-dioxide]
919 nM				243 nM		43 nM			> 40000 nM	CS(=O)(=O)c1ccc2c(c1)S(=O)(=O)NC(C(=O)NCC(c1ccccc1)c1ncco1)=N2 (stereo not shown) [Example 191]
1370 nM			57300 nM	89 nM		72 nM	23600 nM		6150 nM	Cc1cccc(C(CNC(=O)C2=Nc3ccc(Cl)cc3S(=O)(=O)N2)c2ncco2)c1 (stereo not shown) [Example 234, 7-chloro-N-(2-(oxazol-2-yl)-2-(m-tolyl)ethyl)-2H-benzo[e][1,2,4]thiadiazine-3-carboxamide 1,1-dioxide]
34 nM			6590 nM	115 nM		9 nM	3230 nM		1080 nM	O=C(NCC(c1ncco1)c1ccccc1F)C1=Nc2ccc(I)cc2S(=O)(=O)N1 (stereo not shown) [Example 235, N-(2-(2-fluorophenyl)-2-(oxazol-2-yl)ethyl)-7-iodo-2H-benzo[e][1,2,4]thiadiazine-3-carboxamide 1,1-dioxide]
113 nM			20200 nM	73 nM		10 nM	19600 nM		7850 nM	O=C(NCC(c1ncco1)c1ccccc1F)C1=Nc2ccc(Cl)cc2S(=O)(=O)N1 (stereo not shown) [Example 236, 7-chloro-N-(2-(2-fluorophenyl)-2-(oxazol-2-yl)ethyl)-2H-benzo[e][1,2,4]thiadiazine-3-carboxamide 1,1-dioxide]
1010 nM				948 nM		82 nM			> 40000 nM	O=C(NCCc1ccccc1-n1ccnn1)C1=Nc2ccc(I)cc2S(=O)(=O)N1 [Example 241, N-(2-(1H-1,2,3-triazol-1-yl)phenethyl)-7-iodo-2H-benzo[e][1,2,4]thiadiazine-3-carboxamide 1,1-dioxide]
